The results in this text go back to ChEMBL document CHEMBL1201862, “PubChem BioAssay data set” (2004).

The structures appear in SMILES notation. Calls of active or inactive are those of the source. Cut-off read from the data, not from the text of the source, for most assays here: actives have a measured EC50 and inactives only a lower limit. Bounds are passed on as bounds.

Assay [1] deals with T1, Coagulation factor XII (Homo sapiens, UniProt P00748).
T1 sequence (P00748 whole entry): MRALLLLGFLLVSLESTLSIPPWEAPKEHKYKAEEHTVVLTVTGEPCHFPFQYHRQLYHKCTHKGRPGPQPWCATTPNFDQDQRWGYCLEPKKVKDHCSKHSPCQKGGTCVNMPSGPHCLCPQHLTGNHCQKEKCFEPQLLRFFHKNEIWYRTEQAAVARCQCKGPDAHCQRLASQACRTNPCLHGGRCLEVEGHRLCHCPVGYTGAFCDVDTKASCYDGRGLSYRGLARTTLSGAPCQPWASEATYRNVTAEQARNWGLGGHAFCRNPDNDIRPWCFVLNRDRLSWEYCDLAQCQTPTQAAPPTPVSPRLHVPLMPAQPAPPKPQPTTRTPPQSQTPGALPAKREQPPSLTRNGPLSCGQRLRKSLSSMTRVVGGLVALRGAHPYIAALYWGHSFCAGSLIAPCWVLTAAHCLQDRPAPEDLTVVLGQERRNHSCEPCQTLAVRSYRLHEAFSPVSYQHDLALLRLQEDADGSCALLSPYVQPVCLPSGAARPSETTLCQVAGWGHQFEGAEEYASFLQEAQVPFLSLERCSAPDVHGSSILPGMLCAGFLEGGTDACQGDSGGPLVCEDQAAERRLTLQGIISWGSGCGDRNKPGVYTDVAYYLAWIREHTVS
Type of assay: functional.

Assay [2] in a line: Luminescence Cell-Based Dose Response HTS to Identify Activators of Luciferase Translation or Activity in H4 […] Cells. [Related pubchem assays: 1829 (Project Summary), 1814 (Primary HTS)]. In kind it is functional.
Assay [3] is described as follows: Luminescence Cell-Based Dose Confirmation HTS to Identify Activators of 5'UTR Stem-Loop Driven Alpha-Synuclein mRNA Translation in H4 Neuroglioblastoma Cells. [Related pubchem assays: 1829 (Project Summary), 1814 (Primary HTS)]. In kind it is functional.
Assay [4] deals with H4. Description: Luminescence Cell-Based Dose Response HTS to Identify Activators of 5'UTR Stem-Loop Driven Prion Protein mRNA Translation in H4 Neuroglioblastoma Cells. [Related pubchem assays: 1829 (Project Summary), 1814 (Primary HTS)]. Type of assay: functional. The note with it: Homo sapiens.
The nature of assay [5]: NIH-3T3 fibroblast cytotoxicity, dose response, cytotoxicity control, cell-based, fluorescence, Alamar Blue, secondary assay (AID 2327).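 Note: NIH-3T3 mouse fibroblasts cultured with fluconazole at 8 µg/mL.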 In kind it is functional. For orientation: Alamar Blue is a resazurin reagent that responds to reducing activity.
In assay [6] the target is T2, Protein RecA (Mycobacterium tuberculosis, UniProt P9WHJ3).
T2 sequence (P9WHJ3 whole entry): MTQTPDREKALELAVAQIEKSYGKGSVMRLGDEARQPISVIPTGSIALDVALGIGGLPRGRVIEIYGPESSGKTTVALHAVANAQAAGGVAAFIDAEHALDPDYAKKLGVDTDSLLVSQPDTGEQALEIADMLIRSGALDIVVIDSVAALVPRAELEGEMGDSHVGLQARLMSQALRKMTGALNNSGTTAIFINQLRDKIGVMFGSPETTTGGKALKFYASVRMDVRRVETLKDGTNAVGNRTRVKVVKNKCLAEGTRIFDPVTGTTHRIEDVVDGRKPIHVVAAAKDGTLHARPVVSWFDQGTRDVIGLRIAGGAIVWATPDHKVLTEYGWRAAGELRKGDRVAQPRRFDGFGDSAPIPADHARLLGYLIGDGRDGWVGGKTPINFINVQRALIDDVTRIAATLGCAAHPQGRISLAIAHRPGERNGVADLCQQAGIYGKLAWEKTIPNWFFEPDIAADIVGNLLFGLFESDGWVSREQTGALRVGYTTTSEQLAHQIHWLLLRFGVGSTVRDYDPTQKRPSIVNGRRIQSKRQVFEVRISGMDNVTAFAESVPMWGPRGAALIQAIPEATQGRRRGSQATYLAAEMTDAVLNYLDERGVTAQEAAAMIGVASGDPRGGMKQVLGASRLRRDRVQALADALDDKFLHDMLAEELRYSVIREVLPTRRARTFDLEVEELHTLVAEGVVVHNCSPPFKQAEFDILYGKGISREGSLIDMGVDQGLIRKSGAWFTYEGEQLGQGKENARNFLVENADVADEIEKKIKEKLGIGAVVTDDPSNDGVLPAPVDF
Description: Fluorescence Cell-Free Homogeneous Dose Retest to Identify Inhibitors of RecA-Intein Splicing Activity. [Related pubchem assays (depositor defined):AID2097, AID2223, AID489010, AID492950]. Type of assay: functional.

Assay [7] concerns the target T3, Replicative DNA helicase DnaB (Mycobacterium tuberculosis, UniProt P9WMR3).
T3 sequence (P9WMR3 whole entry): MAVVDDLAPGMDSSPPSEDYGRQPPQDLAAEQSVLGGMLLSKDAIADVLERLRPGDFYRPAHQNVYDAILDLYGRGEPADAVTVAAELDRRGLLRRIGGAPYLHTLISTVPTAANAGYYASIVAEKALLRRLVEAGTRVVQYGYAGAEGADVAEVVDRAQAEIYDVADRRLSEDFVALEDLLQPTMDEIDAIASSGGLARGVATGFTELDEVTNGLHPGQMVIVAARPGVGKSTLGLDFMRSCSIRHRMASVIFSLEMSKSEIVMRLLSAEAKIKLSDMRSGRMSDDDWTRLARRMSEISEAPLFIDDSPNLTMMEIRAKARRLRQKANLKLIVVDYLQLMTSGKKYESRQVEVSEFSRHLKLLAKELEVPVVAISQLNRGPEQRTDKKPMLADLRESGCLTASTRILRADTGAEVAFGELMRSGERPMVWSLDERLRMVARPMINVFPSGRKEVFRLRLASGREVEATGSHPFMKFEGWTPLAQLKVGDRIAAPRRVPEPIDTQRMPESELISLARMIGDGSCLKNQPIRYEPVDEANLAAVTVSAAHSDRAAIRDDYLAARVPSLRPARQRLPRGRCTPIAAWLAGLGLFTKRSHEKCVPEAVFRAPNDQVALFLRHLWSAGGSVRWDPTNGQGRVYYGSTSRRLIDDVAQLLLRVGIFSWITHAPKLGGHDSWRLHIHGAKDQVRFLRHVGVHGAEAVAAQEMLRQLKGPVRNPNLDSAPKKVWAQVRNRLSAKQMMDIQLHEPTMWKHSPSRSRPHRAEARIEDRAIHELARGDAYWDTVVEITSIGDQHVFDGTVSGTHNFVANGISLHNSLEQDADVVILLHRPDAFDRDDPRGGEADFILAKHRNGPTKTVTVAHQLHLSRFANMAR
The experiment in a line: DnaB intein splicing inhibitors, dose response, biochemical, cell-free fluorescence (AID 449749). In kind it is functional.

The nature of assay [8]: fluconazole-exposed Candida albicans growth modulators – fluorescence, retest, confirmation (AID 2467). Type of assay: functional, cell-based.
For assay [9], the target named is T4, Polyadenylate-binding protein 1 (Homo sapiens, UniProt P11940). The experiment in a line: MLLE binding blockers, Cy5 peptide tracer – biochemical, fluorescence polarization, Cy5-PAM2 peptide, secondary, miRNA deadenylation inhibitor project, dose response (AID 602260). Type of assay: functional. Conditions: read-out: IC50_Mean. (Fluorescence polarisation rises when a labelled molecule tumbles more slowly, as on binding a larger partner.)

Assay [10] concerns the target T4, Polyadenylate-binding protein 1. Description: MLLE domain peptide-binding blockers, IC50 – biochemical, fluorescence polarization, FITC-PAM2 peptide, dose response (AID 602259). Conditions: read-out: IC50_Mean. In kind it is functional.
Assay [11] concerns the target T5, Protein skinhead-1 (Caenorhabditis elegans, UniProt P34707).
T5 sequence (P34707 whole entry): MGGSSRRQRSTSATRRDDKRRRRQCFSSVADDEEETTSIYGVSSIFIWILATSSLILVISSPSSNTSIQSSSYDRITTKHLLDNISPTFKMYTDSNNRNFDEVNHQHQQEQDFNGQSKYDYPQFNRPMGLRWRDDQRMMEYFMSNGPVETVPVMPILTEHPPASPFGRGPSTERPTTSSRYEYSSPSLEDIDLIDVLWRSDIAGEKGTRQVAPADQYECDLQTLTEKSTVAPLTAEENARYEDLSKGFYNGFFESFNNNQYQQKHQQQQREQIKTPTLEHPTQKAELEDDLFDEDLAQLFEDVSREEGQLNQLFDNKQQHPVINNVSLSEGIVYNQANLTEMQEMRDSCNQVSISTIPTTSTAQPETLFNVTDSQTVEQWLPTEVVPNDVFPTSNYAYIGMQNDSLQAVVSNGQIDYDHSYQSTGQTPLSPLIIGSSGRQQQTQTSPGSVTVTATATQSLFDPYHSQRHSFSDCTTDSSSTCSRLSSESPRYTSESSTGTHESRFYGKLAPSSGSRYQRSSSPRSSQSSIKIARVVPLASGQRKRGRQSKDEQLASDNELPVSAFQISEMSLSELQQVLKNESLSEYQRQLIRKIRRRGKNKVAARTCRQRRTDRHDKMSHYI
Type of assay: functional.

Assay [12] in a line: DRD fibroblast viability loss – cell-based, non-viral oncogenic, luminescence, dose response (AID 1934). Type of assay: functional. The note with it: Homo sapiens.
Assay [13] concerns BJ. The experiment in a line: BJ-TERT fibroblast viability loss – cell-based, RAS-independent, luminescence, dose response (AID 1933). Type of assay: functional. The note with it: Homo sapiens.
Assay [14] deals with BJ. The experiment in a line: cells. Conditions: Homo sapiens. Type of assay: functional, cell-based.
For assay [15], the system named is BJ. The experiment in a line: BJ-TERT-LT-ST fibroblast viability loss – cell-based, RAS-independent, luminescence, dose response (AID 1935).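 Note: BJ fibroblasts immortalized with TERT plus LT and ST oncogenes.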 In kind it is functional. Conditions: Homo sapiens.

T4 sequence (P11940 whole entry): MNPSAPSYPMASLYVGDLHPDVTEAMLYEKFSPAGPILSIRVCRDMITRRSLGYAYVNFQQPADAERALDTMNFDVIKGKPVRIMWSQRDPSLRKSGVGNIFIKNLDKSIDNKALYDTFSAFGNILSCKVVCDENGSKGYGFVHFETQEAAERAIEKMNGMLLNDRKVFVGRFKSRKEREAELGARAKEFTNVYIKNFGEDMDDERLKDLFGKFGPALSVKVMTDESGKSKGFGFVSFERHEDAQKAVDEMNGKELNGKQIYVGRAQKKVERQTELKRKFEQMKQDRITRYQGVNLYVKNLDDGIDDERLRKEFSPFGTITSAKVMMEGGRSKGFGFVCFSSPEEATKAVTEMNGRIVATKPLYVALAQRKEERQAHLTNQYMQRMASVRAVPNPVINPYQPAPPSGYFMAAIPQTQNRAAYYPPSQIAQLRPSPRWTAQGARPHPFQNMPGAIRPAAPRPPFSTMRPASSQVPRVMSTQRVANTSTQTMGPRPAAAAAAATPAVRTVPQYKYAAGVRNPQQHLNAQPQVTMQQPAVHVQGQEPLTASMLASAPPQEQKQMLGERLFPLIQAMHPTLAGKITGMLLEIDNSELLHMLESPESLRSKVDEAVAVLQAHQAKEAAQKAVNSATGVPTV

In the case of `COc1ccccc1C(=O)n1nc(-c2cccnc2)nc1N`, the IC50 in assay [1] was 0.503 µM (active).

Consider `CCOC(=O)c1nn(-c2ccc3c(c2)OCO3)cc1O`, for which the EC50 (commonly the concentration giving half of the maximal effect) is 15.7 µM (active) in [2], 16.6 µM (active) in assay [3] and 23.9 µM (active) in assay [4].

For `O=c1c(Cl)c(NCCCO)cnn1-c1nc2ccccc2[nH]1`, the EC50 in assay [5] is 9.04 µM (inconclusive); in assay [6], 7.41 µM (active); in assay [8] it was 3.47 µM (active); in assay [3], 25.2 µM (active); in assay [4] it was 88 µM (active). Also, the AC50 (as a rule, the midpoint of the concentration-response curve, whichever way the signal moves) in assay [7] is > 380 µM (inactive).

Consider `O=C(CC(SCCO)c1ccc2c(c1)OCO2)c1cccs1` (stereo not drawn), for which the figures for the EC50 in [2], in [3] and in assay [4] were 119 µM (active), 3.91 µM (active) and 9.36 µM (active), respectively. In addition, the IC50 in assay [9] and in [10] was > 66 µM (inactive) in each case.

For `O=C(Oc1cncc(Cl)c1)c1ccco1`, the IC50 was > 100 µM (inactive) in assay [11] and 1.39 µM (active) in assay [1].

On to `O=C(NC(=O)c1csnn1)Nc1ccccc1Cl`, for which the results for the concentration for a half-maximal effect (EC50) in assay [2], in assay [3] and in assay [4] were 94 µM (active), 5.61 µM (active) and > 60 µM (not active), respectively.

Take `Cc1cccc(N2C(=O)NC(=O)/C(=C\c3c(-c4ccccc4)[nH]c4ccccc34)C2=O)c1`: the EC50 was 3.33 µM (active) in assay [12]; 0.511 µM (active) in assay [2]; 3.69 µM (active) in assay [13]; 58.6 µM (active) in assay [14]; > 120 µM (not active) in [3]; 11.5 µM (inconclusive) in assay [15]. In assay [4], the EC50 was > 120 µM (not active).

In the case of `Cc1ccc(C(CC(=O)NCCCN(C)C)c2ccc(OC(C)C)cc2)cc1` (stereo not drawn), in assay [1], the IC50 was > 50 µM (inactive).

For `COc1cc(OC)cc(C(=O)NCC(=O)Nc2ccc(-c3ccccc3)cc2)c1`, the figures for the EC50 in assay [2], in assay [3] and in assay [4] were 55.6 µM (active), > 60 µM (not active) and 9.12 µM (active), respectively.

As for `CCn1c(O)cc(=O)nc1SCC(=O)N1CCCCC1`, in assay [1], the IC50 was > 50 µM (inactive).

For `O=C(Cc1ccccc1[N+](=O)[O-])Nc1ccccc1C(=O)N1CCCC1`, the IC50 in [1] is > 50 µM (inactive).
